Measurements reported in patent publication US20080241177A1 (priority 2003, published 2008).
“Also recorded” adds a separate entry of the source.

What was measured:
serum antibodies [1] = assay: ELISA for serum antibodies specific for the individual vaccine peptides, human sera; conditions: for Number of individuals with a humoral response to the vaccine peptides, Cancer controls n = 54 / Percent of individuals with a humoral response to the vaccine peptides, Cancer controls n = 54: non-trial cancer controls, sera 1:25 dilution; for Number of individuals with a humoral response to the vaccine peptides, Normal controls n = 30: n = 30, not vaccinated
[2] = Delayed type hypersensitivity (DTH) testing; type: in vivo, human; conditions: for Induration area, DTH testing: 48 hours following intradermal injection of individual peptide, after four vaccinations; for Number of patients with a peptide-specific DTH response: six trial patients who underwent DTH testing
Procedure: Delayed type hypersensitivity (DTH) testing was carried out 1 month after the final vaccination. […] Induration of […]10 mm^2 at 48 hours after injection was considered positive.

serum antibodies [3] = assay: Immunization of sheep with the vaccine, anti-peptide ELISA; conditions: for Polyclonal sera with reactivity to peptide obtained from immunized sheep: two sheep, 200 μg peptide mixture in CpG DNA adjuvant, prime and boost
[4] = trial subjects who completed four vaccinations, n = 6, detectable response at any time point considered positive

| Substance | Number of individuals with a humoral response to the vaccine peptides, Cancer controls n = 54 (serum antibodies [1]) | Percent of individuals with a humoral response to the vaccine peptides, Cancer controls n = 54 (serum antibodies [1]) [%] | Number of individuals with a humoral response to the vaccine peptides, Normal controls n = 30 (serum antibodies [1]) | Number of individuals with a humoral response to the vaccine peptides, Trial subjects n = 6 (serum antibodies [1]; [4]) | Induration area, DTH testing ([2]; patient 012) | Induration area, DTH testing ([2]; patient 014) | Induration area, DTH testing ([2]; patient 015) | Induration area, DTH testing ([2]; patient 016) | Induration area, DTH testing ([2]; patient 017) | Induration area, DTH testing ([2]; patient 018) | Number of patients with a peptide-specific DTH response [2] | Polyclonal sera with reactivity to peptide obtained from immunized sheep (serum antibodies [3]) | also measured |
| --- | --- | --- | --- | --- | --- | --- | --- | --- | --- | --- | --- | --- | --- |
| H-LLIYLGSTRASGVPDR-OH [Peptide 7] | 1 | 1.9 | 0 | 0 | 16 mm^2 | Neg (Neg indicates that induration (if any) was less than 10 mm^2) | Neg (Neg indicates that induration (if any) was less than 10 mm^2) | 39 mm^2 | Neg (Neg indicates that induration (if any) was less than 10 mm^2) | Neg (Neg indicates that induration (if any) was less than 10 mm^2) | two | neither animal; also recorded: could not be generated | Number of individuals with a humoral response to the vaccine peptides, Trial subjects n = 6 (serum antibodies [1]; trial subjects who completed four vaccinations, n = 6, detectable response at any time point considered positive, listed as peptide 7): No patient demonstrated a response; Response to peptide using the polyclonal sheep sera or rabbit sera (serum antibodies [3]; polyclonal sheep sera (FIG. 2A) or rabbit sera (data not shown)): positive responses |
| H-AVYYCLLQALKHWGQGT-OH [Peptide 2] | 1 | 1.9 | 0 | 4 | 189 mm^2 | 20 mm^2 | 86 mm^2 | Neg (Neg indicates that induration (if any) was less than 10 mm^2) | 71 mm^2 | 38 mm^2 | five | obtained from both sheep | Isotype of peptide-specific serum antibodies (serum antibodies [1]; subject 012): IgG1; Isotype of peptide-specific serum antibodies (serum antibodies [1]; subject 014): IgG1 and IgG3; Isotype of peptide-specific serum antibodies (serum antibodies [1]; subject 015): IgG1 and IgG3; Isotype of peptide-specific serum antibodies (serum antibodies [1]; subject 016): IgG4; Percent of individuals with a humoral response to the vaccine peptides, Trial subjects n = 6 (serum antibodies [1]; [4]): 66.7%; Number of individuals with a humoral response to the vaccine peptides, Trial subjects n = 6 (serum antibodies [1]; trial subjects who completed four vaccinations, n = 6, detectable response at any time point considered positive, listed as peptide 2): four of the six; Response higher in the first immunized sheep, on average (serum antibodies [3]; first versus second sheep): 50% |
| H-PKLLIYKASSLESGVPSR-OH [HIV-L2, reference compound] | – | – | – | – | Neg (Neg indicates that induration (if any) was less than 10 mm^2) | Neg (Neg indicates that induration (if any) was less than 10 mm^2) | Neg (Neg indicates that induration (if any) was less than 10 mm^2) | Neg (Neg indicates that induration (if any) was less than 10 mm^2) | Neg (Neg indicates that induration (if any) was less than 10 mm^2) | Neg (Neg indicates that induration (if any) was less than 10 mm^2) | – | – | – |
